Counter-ions that a name gives are not always drawn.
Key:
[1] = Determination of the microsomal half-life / microsomal clearance, rat liver microsomes; type: in vitro ADME; details: 0.5 μM test substance, 0.25 mg of microsomal protein/mL, NADPH, 37° C.
Experimental: (§1) b) Determination of the Microsomal Half-Life:
(§2) The metabolic stability of the compounds of the invention was determined in the following assay.
(§3) The test substances were incubated in a concentration of 0.5 μM as follows:
(§4) 0.5 μM test substance are preincubated together with liver microsomes from different species (from rat, human or other species) (0.25 mg of microsomal protein/mL) in 0.05 M potassium phosphate buffer of pH 7.4 in microtiter plates at 37° C. for 5 min. The reaction is started by adding NADPH (1 mg/mL). After 0, 5, 10, 15, 20 and 30 min, 50 μl aliquots are removed, and the reaction is immediately stopped and cooled with the same volume of acetonitrile. The samples are frozen until analyzed. The remaining concentration of undegraded test substance is determined by MSMS. The half-life (T½) is determined from the gradient of the signal of test substance/unit time plot, it being possible to calculate the half-life of the test substance, assuming first order kinetics, from the decrease in the concentration of the compound with time. The microsomal clearance (mCl) is calculated from mCl=ln 2/T½/(content of microsomal protein in mg/mL)×1000 [mL/min/mg] (modified from references: Di, The Society for Biomoleculur Screening, 2003, 453-462; Obach, DMD, 1999 vol 27. N 11, 1350-1359).

[2] = Determination of the microsomal half-life / microsomal clearance, human liver microsomes; type: in vitro ADME; details: 0.5 μM test substance, 0.25 mg of microsomal protein/mL, NADPH, 37° C.
Experimental: as §1, §2, §3, §4

SMILES: Cn1nc(-c2ccncc2)c2scc(-c3ccc(F)cc3)c2c1=O [Example 8, 3-(4-fluorophenyl)-5-methyl-7-(pyridin-4-yl)thieno[2,3-d]pyridazin-4(5H)-one]
- Rat mCl [1]: + (+: 100-220 μl min^−1 mg^−1)
- Human mCl [2]: + (+: 100-220 μl min^−1 mg^−1)

SMILES: Cn1nc(-c2ccncc2)c2scc(-c3ccc(F)nc3)c2c1=O.O=C(O)C(F)(F)F.O=C(O)C(F)(F)F [Example 27, 3-(6-fluoropyridin-3-yl)-5-methyl-7-(pyridin-4-yl)thieno[2,3-d]pyridazin-4(5H)-one bis(trifluoroacetate)]
- Rat mCl [1]: ++ (++: <100 μl min^−1 mg^−1)
- Human mCl [2]: ++ (++: <100 μl min^−1 mg^−1)

SMILES: Cn1nc(-c2ccccc2C(N)=O)c2scc(-c3ccncc3)c2c1=O [Example 98, 2-[5-methyl-4-oxo-3-(pyridin-4-yl)-4,5-dihydrothieno[2,3-d]pyridazin-7-yl]benzamide]
- Rat mCl [1]: ++ (++: <100 μl min^−1 mg^−1)
- Human mCl [2]: ++ (++: <100 μl min^−1 mg^−1)

SMILES: Cn1nc(OCC2CCNCC2)c2scc(-c3ccncc3)c2c1=O.O=C(O)C(F)(F)F [Example 125, 5-methyl-7-(piperidin-4-ylmethoxy)-3-(pyridin-4-yl)thieno[2,3-d]pyridazin-4(5H)-one bis(trifluoroacetate)]
- Rat mCl [1]: ++ (++: <100 μl min^−1 mg^−1)
- Human mCl [2]: ++ (++: <100 μl min^−1 mg^−1)

SMILES: Cn1nc(-c2ccncc2)c2scc(N3CCNCC3)c2c1=O [Example 12, 5-methyl-3-(piperazin-1-yl)-7-(pyridin-4-yl)thieno[2,3-d]pyridazin-4(5H)-one (dihydrochloride salt)]
- Rat mCl [1]: ++ (++: <100 μl min^−1 mg^−1)
- Human mCl [2]: ++ (++: <100 μl min^−1 mg^−1)

SMILES: Cn1nc(OC2CCCCC2)c2scc(-c3ccncc3)c2c1=O.O=C(O)C(F)(F)F [Example 53, 7-(cyclohexyloxy)-5-methyl-3-(pyridin-4-yl)thieno[2,3-d]pyridazin-4(5H)-one trifluoroacetate]
- Rat mCl [1]: + (+: 100-220 μl min^−1 mg^−1)
- Human mCl [2]: ++ (++: <100 μl min^−1 mg^−1)

SMILES: COc1ccccc1-c1csc2c(-c3ccncc3)nn(C)c(=O)c12.O=C(O)C(F)(F)F [Example 39, 3-(2-methoxyphenyl)-5-methyl-7-(pyridin-4-yl)thieno[2,3-d]pyridazin-4(5H)-one trifluoroacetate]
- Rat mCl [1]: ++ (++: <100 μl min^−1 mg^−1)
- Human mCl [2]: ++ (++: <100 μl min^−1 mg^−1)

SMILES: CN1CCN(c2nn(C)c(=O)c3c(-c4ccncc4)csc23)CC1 [Example 49, 5-methyl-7-(4-methylpiperazin-1-yl)-3-(pyridin-4-yl)thieno[2,3-d]pyridazin-4(5H)-one]
- Rat mCl [1]: ++ (++: <100 μl min^−1 mg^−1)
- Human mCl [2]: ++ (++: <100 μl min^−1 mg^−1)

SMILES: Cn1nc(-c2ccncc2)c2scc(-c3ccc(C#N)cc3)c2c1=O.O=C(O)C(F)(F)F [Example 25, 4-[5-methyl-4-oxo-7-(pyridin-4-yl)-4,5-dihydrothieno[2,3-d]pyridazin-3-yl]benzonitrile trifluoroacetate]
- Rat mCl [1]: ++ (++: <100 μl min^−1 mg^−1)
- Human mCl [2]: ++ (++: <100 μl min^−1 mg^−1)

SMILES: Cn1nc(-c2ccncc2)c2scc(N3CCN(C(=O)OC(C)(C)C)CC3)c2c1=O [Example 5, tert-butyl 4-[5-methyl-4-oxo-7-(pyridin-4-yl)-4,5-dihydrothieno[2,3-d]pyridazin-3-yl]piperazine-1-carboxylate]
- Rat mCl [1]: ++ (++: <100 μl min^−1 mg^−1)
- Human mCl [2]: ++ (++: <100 μl min^−1 mg^−1)

SMILES: Cn1nc(-c2ccncc2)c2scc(-c3csc4ccccc34)c2c1=O.O=C(O)C(F)(F)F [Example 26, 3-(1-benzothiophen-3-yl)-5-methyl-7-(pyridin-4-yl)thieno[2,3-d]pyridazin-4(5H)-one trifluoroacetate]
- Rat mCl [1]: ∘ (∘ not avialable or >220 μl min^−1 mg^−1)
- Human mCl [2]: + (+: 100-220 μl min^−1 mg^−1)

From patent US9200005B2, “Inhibitor compounds of phosphodiesterase type 10A” (AbbVie Deutschland GmbH & Co. KG, priority 2013, dated 2015)
